Our source for the GI50 and TGI values is PubChem BioAssay (NCI).

Test systems include OVCAR-5 ovarian; SF-539 CNS; HOP-62 NSCLC; SK-MEL-5 melanoma; SNB-19 CNS; MALME-3M melanoma; KM12 colon; TK-10 renal; CCRF-CEM leukemia; NCI-H522 lung.
Holding throughout (test): NCI tumour cell line growth inhibition, 48 h

Molecules are shown by their SMILES.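 Exposure lasted 48 hours, with cells grown in 96-well plates and compounds tested at five concentrations. At the GI50, growth is halved. TGI: concentration producing complete growth inhibition.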

`O=C(Nc1cc(-c2ccccc2)[nH]n1)c1ccc(Cl)cc1`: the GI50 was more than 100 µM with OVCAR-5 ovarian; 17.9 µM in the experiment with SF-539 CNS; 20.7 µM in the experiment with HOP-62 NSCLC; more than 100 µM with SK-MEL-5 melanoma; 74.2 µM in the experiment with SNB-19 CNS; 12.1 µM with MALME-3M melanoma. The GI50 with KM12 colon was 3.28 µM; in the experiment on TK-10 renal, 9.22 µM. Further, the TGI with OVCAR-5 ovarian, in the experiment on SF-539 CNS, in the experiment on HOP-62 NSCLC, in the experiment on SK-MEL-5 melanoma, in the experiment on SNB-19 CNS and with MALME-3M melanoma was more than 100 µM in each case. For the same molecule, the TGI in the experiment on KM12 colon and with TK-10 renal was more than 100 µM in each case.
In the case of `Clc1ccc(CNc2nc3ccccc3nc2-c2cccs2)c(Cl)c1`, the TGI with OVCAR-5 ovarian, in the experiment with SF-539 CNS, with HOP-62 NSCLC, with SNB-19 CNS, in the experiment with MALME-3M melanoma and in the experiment on CCRF-CEM leukemia was more than 100 µM throughout. For the same molecule, in the experiment on TK-10 renal, the TGI was more than 100 µM.
Regarding `CC/C=C\C/C=C\C1CC(=O)NCCCNCCCCN1` (centres undefined), the TGI in the experiment with OVCAR-5 ovarian is more than 100 µM; with SF-539 CNS, more than 100 µM; in the experiment with HOP-62 NSCLC, more than 100 µM; in the experiment with SK-MEL-5 melanoma, more than 100 µM; with SNB-19 CNS it was more than 100 µM; in the experiment on MALME-3M melanoma, 78.9 µM. For the same molecule, the TGI with KM12 colon, in the experiment on NCI-H522 lung and in the experiment on TK-10 renal was more than 100 µM in each case.
With `COc1cc(/C=C2\CC3C4CC=C5CC(N6CCCC6)CC[C@]5(C)C4CC[C@]3(C)C2OC(C)=O)ccc1OCCN1CCCC1` (some centres undefined), the GI50 with OVCAR-5 ovarian was 3.01 µM; in the experiment on SF-539 CNS, 1.92 µM; in the experiment on HOP-62 NSCLC, 19.7 µM; with SNB-19 CNS it was 5.73 µM; in the experiment with MALME-3M melanoma it was 1.49 µM; in the experiment on CCRF-CEM leukemia, 1.95 µM. Also, the GI50 in the experiment with KM12 colon was 2.27 µM; in the experiment with NCI-H522 lung, 1.69 µM; in the experiment on TK-10 renal, 14.9 µM. For the same molecule, the TGI in the experiment with OVCAR-5 ovarian was 7.09 µM; in the experiment with SF-539 CNS, 3.5 µM; in the experiment with HOP-62 NSCLC, 34.6 µM; in the experiment with SNB-19 CNS, 22.8 µM; in the experiment with MALME-3M melanoma, 3.07 µM; in the experiment on CCRF-CEM leukemia, 4.87 µM. Besides, the figures for the TGI in the experiment with KM12 colon, in the experiment on NCI-H522 lung and in the experiment on TK-10 renal were 5.99 µM, 3.25 µM and 29.2 µM, respectively.
Take `Cn1c(N)nc2c(nc(OCc3ccccc3)n2C2OC(CO)C(O)C2O)c1=O` (centres undefined): the TGI in the experiment with OVCAR-5 ovarian, in the experiment with HOP-62 NSCLC, in the experiment with SK-MEL-5 melanoma, in the experiment with SNB-19 CNS, with MALME-3M melanoma and with CCRF-CEM leukemia was more than 100 µM each time. Moreover, the TGI in the experiment on KM12 colon, in the experiment with NCI-H522 lung and in the experiment with TK-10 renal was more than 100 µM each time.
For the molecule `O=C1N[C@@H](O)[C@@H]2ON=C(c3ccccc3)[C@H]12`, the TGI in the experiment on OVCAR-5 ovarian, in the experiment on SF-539 CNS, with HOP-62 NSCLC, in the experiment with SK-MEL-5 melanoma, in the experiment with SNB-19 CNS and in the experiment with MALME-3M melanoma was more than 100 µM throughout. Also, the TGI with CCRF-CEM leukemia, with KM12 colon and with TK-10 renal was more than 100 µM throughout.
As to `CC(=O)OCCOCBr`, the TGI with OVCAR-5 ovarian, with SF-539 CNS, with HOP-62 NSCLC, in the experiment on SK-MEL-5 melanoma, in the experiment on MALME-3M melanoma and in the experiment with CCRF-CEM leukemia was more than 100 µM each time. Besides, the TGI with KM12 colon, in the experiment on NCI-H522 lung and in the experiment with TK-10 renal was more than 100 µM throughout.
Regarding `C=CCOc1c(Br)cc(Br)cc1Br`, the GI50 with OVCAR-5 ovarian was 28.2 µM; in the experiment with SF-539 CNS it was 20.9 µM; with HOP-62 NSCLC, 23.5 µM; in the experiment with SK-MEL-5 melanoma, 43.4 µM; with SNB-19 CNS, 17.4 µM; in the experiment with CCRF-CEM leukemia, 10.4 µM. The GI50 is 14.1 µM in the experiment on KM12 colon, 4.68 µM in the experiment with NCI-H522 lung and more than 100 µM with TK-10 renal. The TGI in the experiment on OVCAR-5 ovarian, in the experiment on SF-539 CNS, in the experiment on HOP-62 NSCLC, with SK-MEL-5 melanoma, with SNB-19 CNS and in the experiment on CCRF-CEM leukemia was more than 100 µM each time. Moreover, the TGI in the experiment with KM12 colon is 45.7 µM; in the experiment on NCI-H522 lung it was 30.7 µM; in the experiment on TK-10 renal, more than 100 µM.
For `NC1=NC(=O)C(CC(=O)Nc2ccc([N+](=O)[O-])cc2[N+](=O)[O-])S1` (centres undefined), the TGI in the experiment on OVCAR-5 ovarian, with HOP-62 NSCLC, in the experiment with SK-MEL-5 melanoma, in the experiment with SNB-19 CNS, in the experiment with MALME-3M melanoma and with CCRF-CEM leukemia was more than 100 µM in each case. Moreover, the TGI in the experiment with KM12 colon and with TK-10 renal was more than 100 µM in each case.
Turning to `Oc1c(Br)cc(CN(Cc2cc(Br)c(O)c(Br)c2)C2CCCCC2)cc1Br`, the TGI in the experiment with OVCAR-5 ovarian, in the experiment on HOP-62 NSCLC, in the experiment with SK-MEL-5 melanoma, in the experiment on SNB-19 CNS, in the experiment on MALME-3M melanoma and with CCRF-CEM leukemia was more than 100 µM in each case. In addition, the TGI in the experiment with KM12 colon, with NCI-H522 lung and with TK-10 renal was more than 100 µM throughout.
Regarding `COc1ccc(C2=NC(C)(C)CO2)cc1`, the TGI in the experiment with OVCAR-5 ovarian, in the experiment on SF-539 CNS, in the experiment on HOP-62 NSCLC, with SK-MEL-5 melanoma, in the experiment on SNB-19 CNS and with MALME-3M melanoma was more than 100 µM each time. Also, the TGI in the experiment on CCRF-CEM leukemia, in the experiment on KM12 colon and in the experiment with TK-10 renal was more than 100 µM in each case.
In the case of `Cc1c(C(=O)NN)nnn1-c1ccnc2c(C(F)(F)F)cccc12`, the GI50 with OVCAR-5 ovarian, with SF-539 CNS, in the experiment on HOP-62 NSCLC, in the experiment on SK-MEL-5 melanoma, in the experiment with SNB-19 CNS and in the experiment with CCRF-CEM leukemia was more than 100 µM each time. Also, the GI50 with KM12 colon, in the experiment on NCI-H522 lung and in the experiment with TK-10 renal was more than 100 µM throughout. Also, the TGI in the experiment on OVCAR-5 ovarian, with SF-539 CNS, with HOP-62 NSCLC, in the experiment with SK-MEL-5 melanoma, in the experiment with SNB-19 CNS and with CCRF-CEM leukemia was more than 100 µM throughout. The TGI in the experiment with KM12 colon, with NCI-H522 lung and with TK-10 renal was more than 100 µM in each case.
